Counter-ions that a name gives are not always drawn. Like-named read-outs stand apart in the source and are kept apart here.

The test has as its system SJSA-1. Kind of test: Protocol B: SJSA-1 CellTiter-Glo cell viability.
[1] abbreviates: read-out: SJSA1 IC50 (Protocol B), SJSA-1 cells, CellTiter-Glo, 72 hrs.
Where [2] appears, read: Homo sapiens, SJSA-1, 72 h, read-out: SJSA1 IC50 (Protocol B), SJSA-1 cells, CellTiter-Glo, 72 hrs.
[3] abbreviates: Homo sapiens, SJSA-1, 72 h, read-out: SJSA1 IC50 (μM) (Protocol B), SJSA-1, Protocol B (CellTiter-Glo), 72 hrs.

Consider `Cc1nnc(C(C)(O)c2cc(F)c3c(c2)C(=O)N(Cc2ccc(Cl)cn2)[C@@]3(OCC2(O)CC2)c2ccc(Cl)cc2)o1` (stereo partly drawn) [Example 186, (3R)-3-(4-Chlorophenyl)-2-[(5-chloropyridin-2-yl)methyl]-4-fluoro-6-[1-hydroxy-1-(5-methyl-1,3,4-oxadiazol-2-yl)ethyl]-3-[(1-hydroxycyclopropyl)methoxy]-2,3-dihydro-1H-isoindol-1-one], for which the concentration for half-maximal inhibition (IC50) under setting [1] is 0.42 µM.

Turning to `CO[C@]1(c2ccc(Cl)cc2)c2c(F)cc(C(C)(O)c3ccn(C)n3)cc2C(=O)N1Cc1ccc(Cl)cn1` (stereo partly drawn) [Example 189, (3R)-3-(4-Chlorophenyl)-2-[(5-chloropyridin-2-yl)methyl]-4-fluoro-6-[1-hydroxy-1-(1-methyl-1H-pyrazol-3-yl)ethyl]-3-methoxy-2,3-dihydro-1H-isoindol-1-one], the IC50 under setting [1] came out at 1 µM.

Take `CO[C@]1(c2ccc(Cl)cc2)c2c(F)cc(C(C)(O)c3ccn(C)n3)cc2C(=O)N1Cc1ccc(Cl)cn1` (stereo partly drawn) [Example 190, (3R)-3-(4-Chlorophenyl)-2-[(5-chloropyridin-2-yl)methyl]-4-fluoro-6-[1-hydroxy-1-(1-methyl-1H-pyrazol-3-yl)ethyl]-3-methoxy-2,3-dihydro-1H-isoindol-1-one]: the IC50 under setting [1] came to 5 µM.

Turning to `CN1CCN(CC(C)(O)c2cc(F)c3c(c2)C(=O)N(Cc2ccc(C#N)cn2)[C@@]3(OCC2(C#N)CC2)c2ccc(Cl)cc2)CC1` (stereo partly drawn) [Example 279, 6-{[(1R)-1-(4-chlorophenyl)-1-[(1-cyanocyclopropyl)methoxy]-7-fluoro-5-[2-hydroxy-1-(4-methylpiperazin-1-yl)propan-2-yl]-3-oxo-2,3-dihydro-1H-isoindol-2-yl]methyl}pyridine-3-carbonitrile], the 50% inhibitory concentration (IC50) under setting [2] was 0.57 µM.

As to `CCC(O)(c1cc(F)c2c(c1)C(=O)N(Cc1ccc(C#N)cn1)[C@@]2(OCC1(CO)CC1)c1ccc(Cl)cc1)c1cn(C)cn1` (stereo partly drawn) [Example 337, 6-{[(1R)-1-(4-chlorophenyl)-7-fluoro-5-[1-hydroxy-1-(1-methyl-1H-imidazol-4-yl)propyl]-1-{[1-(hydroxymethyl)cyclopropyl]methoxy}-3-oxo-2,3-dihydro-1H-isoindol-2-yl]methyl}pyridine-3-carbonitrile], the concentration for half-maximal inhibition (IC50) under setting [3] came to 0.058 µM.

Consider `Cn1cc(C(C)(O)c2cc(F)c3c(c2)C(=O)N(Cc2ncc(Cl)cn2)[C@@]3(OCC2(CO)CC2)c2ccc(Cl)cc2)cn1` (stereo partly drawn) [Example 349, (3R)-3-(4-chlorophenyl)-2-[(5-chloropyrimidin-2-yl)methyl]-4-fluoro-6-[1-hydroxy-1-(1-methyl-1H-pyrazol-4-yl)ethyl]-3-{[1-(hydroxymethyl)cyclopropyl]methoxy}-2,3-dihydro-1H-isoindol-1-one], for which the half-inhibitory concentration (IC50) under setting [2] amounted to 0.028 µM.

As for `Cn1cc(C(C)(O)c2cc(F)c3c(c2)C(=O)N(Cc2ccc(C#N)cn2)[C@@]3(O[C@H]2C[C@@H](O)C2)c2ccc(Cl)cc2)cn1` (stereo partly drawn) [Example 355, 6-{[1-(4-chlorophenyl)-7-fluoro-5-[1-hydroxy-1-(1-methyl-1H-pyrazol-4-yl)ethyl]-3-oxo-1-[cis-3-hydroxycyclobutoxy]-2,3-dihydro-1H-isoindol-2-yl]methyl}pyridine-3-carbonitrile], under setting [2], the IC50 worked out at 4.7 µM.

Take `Cn1cc(C(O)(c2cc(F)c3c(c2)C(=O)N(Cc2ccc(C#N)cn2)[C@@]3(O[C@H]2CCOC2)c2ccc(Cl)cc2)C(F)(F)F)cn1` (stereo partly drawn) [Example 371, 6-{[(1R)-1-(4-chlorophenyl)-7-fluoro-3-oxo-1-[(3S)-oxolan-3-yloxy]-5-[2,2,2-trifluoro-1-hydroxy-1-(1-methyl-1H-pyrazol-4-yl)ethyl]-2,3-dihydro-1H-isoindol-2-yl]methyl}pyridine-3-carbonitrile]: under setting [3], the concentration for half-maximal inhibition (IC50) was determined as 2.3 µM.

For `CC(O)(c1cc(F)c2c(c1)C(=O)N(Cc1ccc(Cl)cn1)[C@@]2(OCC1(O)CC1)c1ccc(Cl)cc1)c1ncccn1` (stereo partly drawn) [Example 396, (3R)-3-(4-chlorophenyl)-2-[(5-chloropyridin-2-yl)methyl]-4-fluoro-6-[1-hydroxy-1-(pyrimidin-2-yl)ethyl]-3-[(1-hydroxycyclopropyl)methoxy]-2,3-dihydro-1H-isoindol-1-one], the IC50 under setting [2] turned out to be 0.28 µM.

`CC[C@@](O)(c1cc(F)c2c(c1)C(=O)N(Cc1ncc(C#N)cn1)[C@@]2(O[C@H]1C[C@@H](O)C1)c1ccc(Cl)cc1)C1(F)CCOCC1` [Example 505, 2-{[(1R)-1-(4-chlorophenyl)-7-fluoro-5-[(1R)-1-(4-fluorooxan-4-yl)-1-hydroxypropyl]-3-oxo-1-[cis-3-hydroxycyclobutoxy]-2,3-dihydro-1H-isoindol-2-yl]methyl}pyrimidine-5-carbonitrile]: the IC50 under setting [3] is 0.027 µM.

In the case of `CC[C@](O)(c1cc(F)c2c(c1)C(=O)N(Cc1ncc(C#N)cn1)[C@@]2(O[C@H]1C[C@@H](O)C1)c1ccc(Cl)cc1)C1(F)CCOCC1` [Example 506, 2-{[(1R)-1-(4-chlorophenyl)-7-fluoro-5-[(1S)-1-(4-fluorooxan-4-yl)-1-hydroxypropyl]-3-oxo-1-[cis-3-hydroxycyclobutoxy]-2,3-dihydro-1H-isoindol-2-yl]methyl}pyrimidine-5-carbonitrile], the IC50 under setting [3] was 3.4 µM.

Consider `CC[C@@](O)(c1cc(F)c2c(c1)C(=O)N(Cc1ncc(C#N)cn1)[C@@]2(O[C@H]1CCOC1)c1ccc(Cl)cc1)C1(F)CCOCC1` [Example 507, 2-{[(1R)-1-(4-chlorophenyl)-7-fluoro-5-[(1R)-1-(4-fluorooxan-4-yl)-1-hydroxypropyl]-3-oxo-1-[(3S)-oxolan-3-yloxy]-2,3-dihydro-1H-isoindol-2-yl]methyl}pyrimidine-5-carbonitrile], for which the 50% inhibitory concentration (IC50) under setting [3] is 0.02 µM.

With `CCC(O)(c1cc(F)c2c(c1)C(=O)N(Cc1ncc(Cl)cn1)[C@@]2(OC)c1ccc(Cl)cc1)[C@H]1CC[C@H](O)CC1` (stereo partly drawn) [Example 511, (3R)-3-(4-chlorophenyl)-2-[(5-chloropyrimidin-2-yl)methyl]-4-fluoro-6-{1-hydroxy-1-[trans-4-hydroxycyclohexyl]propyl}-3-methoxy-2,3-dihydro-1H-isoindol-1-one], the IC50 under setting [3] came out at 0.018 µM.

On to `CC[C@@](O)(c1cc(F)c2c(c1)C(=O)N(Cc1ncc(Cl)cc1C(=O)O)[C@@]2(OC)c1ccc(Cl)cc1)C1(F)CCOCC1` [Example 514, 5-chloro-2-{[(1R)-1-(4-chlorophenyl)-7-fluoro-5-[(1R)-1-(4-fluorooxan-4-yl)-1-hydroxypropyl]-1-methoxy-3-oxo-2,3-dihydro-1H-isoindol-2-yl]methyl}pyridine-3-carboxylic acid (tris(hydroxymethyl)aminomethane salt)], for which the IC50 under setting [3] worked out at 0.64 µM.

On to `CC[C@@](O)(c1cc(F)c2c(c1)C(=O)N(Cc1ncc(Cl)cn1)[C@@]2(O[C@H]1C[C@@H](O)C1)c1ccc(Cl)cc1)C1CCN(C)CC1` [Example 560, (3R)-3-(4-chlorophenyl)-2-[(5-chloropyrimidin-2-yl)methyl]-4-fluoro-6-[(1S)-1-hydroxy-1-(1-methylpiperidin-4-yl)propyl]-3-[cis-3-hydroxycyclobutoxy]-2,3-dihydro-1H-isoindol-1-one], for which the IC50 under setting [3] was found to be 0.13 µM.

For `CC[C@@](O)(c1cc(F)c2c(c1)C(=O)N(Cc1ncc(Cl)cc1O)[C@@]2(O[C@H]1CCOC1)c1ccc(Cl)cc1)C1CCN(C)CC1` [Example 568, 2-[(5-chloro-3-hydroxypyridin-2-yl)methyl]-3-(4-chlorophenyl)-4-fluoro-6-[(1S)-1-hydroxy-1-(1-methylpiperidin-4-yl)propyl]-3-[(3S)-oxolan-3-yloxy]-2,3-dihydro-1H-isoindol-1-one], the IC50 under setting [3] came to 0.094 µM.

Source of the values: patent US10526311B2 (ASTEX THERAPEUTICS LIMITED, priority 2015, dated 2020).
